Reference: patent US20090142735A1, “Bacterial intraoral disease treatment composition, washing treatment solution, hemostatic treatment solution, and bacterial intraoral disease treatment method” (priority 2005, published 2009)

Assay: Test Example 1: penetrability of the base (migration of food red from the drug application seat)
Assay type: physicochemical
Details: 100% humidity, root embedded in gypsum block
Description: FIG. 7 depicts a cross-sectional view of a sample 50 according to the present test example. First, the mandibular first premolar affected with apical periodontitis was drilled with a #70 […] to enlarge the root canal and further the root canal 51 was filled using a gutta-percha point and a sealer, and by pressing them sideways. […] At the bottom of this drug application seat 52, two small pieces 53 (about 1.0 mm in diameter) of each base shown in Table 1 added with food red were loaded. Furthermore, cotton ball (not shown) was placed so as to cover these small pieces 53, and “Caviton (registered trade mark)” (G C Co., Ltd.) was layered over this cotton ball to form the covering layer 54, thereby preparing the sample 50. After the root portion of each sample 50 was embedded in an ordinary gypsum block 55, it was stored under 100% humidity. Migration distances of food red from the drug application seat for storing times of 24 hours and 48 hours were measured to assess the penetrability of the base contained in each sample. In this case, the migration distance was determined as the longest distance in the direction of depth (in the direction of the arrow D in FIG. 7) of the area reached by coloring due to food red when the sample 50 was observed from outside.

Row | Migration distance of food red from drug application seat (depth direction) (storing time 24 hours) | Migration distance of food red from drug application seat (depth direction) (storing time 48 hours) | Compound
1 | 2.0 mm | 3.5 mm | CC(O)CO (stereo not drawn) [Sample 2, Propylene glycol]
2 | 5.0 mm | 7.0 mm | OCC(O)CO [Sample 6, Glycerin]

Row | Compound | Migration distance of food red from drug application seat (depth direction) (storing time 24 hours) | Migration distance of food red from drug application seat (depth direction) (storing time 48 hours)
3 | O [Sample 1, Water] | 2.0 mm | 4.0 mm
